Patent publication US9326972B2, “Use of phenylmethimazoles, methimazole derivatives, and tautomeric cyclic thiones for the treatment of autoimmune/inflammatory diseases associated with toll-like receptor overexpression” (Ohio University, priority 2004, dated 2016)

Columns and labels:
horses [1] = assay: LPS-induced endotoxemia and endotoxic shock in horses; type: in vivo, horse; conditions: for Dyspnea and Tachypnea / Lung Auscultation / Toxemia and Vascular Congestion / Toxemia, Vascular Congestion, Cyanosis: C10 2 mg/kg iv pretreatment
horses [2] = assay: Peritonitis and endotoxic shock in horses induced by intraperitoneal caecal fluid; type: in vivo, horse
IFN-β promoter = IFN-β promoter luciferase reporter in FRTL-5 thyrocytes; type: cell-based, rat
Experimental: FIG. 5. Phenylmethimazole (CIO) and Methimazole (MMI) inhibit the ability of Poly (I:C), lipopolysaccharide (LPS) and IL-1β to increase IFN-β gene expression (Top Left) and IRF-3 transactivation (Top Right) in FRTL-5 thyrocytes. (Top Left) Cells were co-transfected with IFNβ-Luc and control vector (pRLTk-Int), then treated with or without (−) Poly (I:C) (100 μg/ml), LPS (100 ng/ml), or IL-1β (10 ng/ml) in the presence of the vehicle (DMSO) alone (−), C10, or MMI for 6 hours. Data was obtained with the Dual Luciferase Assay system. (Top Right) Cells were co-transfected with Gal4 DBD/IRF-3 and Gal4-Luc then treated with nothing (−), poly (I:C), LPS, or IL-1β as in (Top Left) in the presence of DMSO or C10 for 6 hours. Data was obtained by Luciferase assay. Also shown is a graphic depiction (Bottom) of how the cis reporting system is working. Data are representative of multiple experiments.
C10, at 0.5 mM, inhibited the ability of poly (I:C) to increase IFN-β promoter activity (luciferase luminescence; P<0.01) when incubated with FRTL-5 thyrocytes transfected with pIFN-β-luc constructs (FIG. 5 Top Left, Poly (I:C) vs untreated (−)).
Plasmids for Reporter Gene Assays. Human IRF-3 was amplified from human cDNA and cloned into pCR 2.1 by the TOPO/TA (Invitrogen, Carlsbad, Calif.) cloning method, and then sequenced. […]

serum cytokines = assay: Serum pro-inflammatory cytokines in LPS-treated mice (ELISA); type: in vivo, mouse; conditions: LPS-treated mice of Table 5
Experimental: Quantification of pro-inflammatory cytokines in blood: The cytokines TNF-α, IL-1β, IL-6, IFN-γ and IL-12 were quantified in serum using ELISA techniques. Blood was collected from the inner canthus of the eye under anesthesia and serum saved at −20° C. until use. The ELISA kits were from R&D System and the results were expressed in pg/ml serum.

[3] = LPS 10 μg/kg, C10 (1 mg/kg) iv pretreatment, time 0.15-6 hours

SMILES: Cn1c(-c2ccccc2)cnc1S [Compound C10, 5-Phenylmethimazole]
- symptoms of endotoxemia (hypotension, hypoxemia, collapse, cardiac anoxia, acute renal failure) (horses [1]; LPS): clearly blocked
- Dyspnea and Tachypnea (horses [1]; LPS 10 μg/kg, 1 week): Normal
- Lung Auscultation (horses [1]; LPS 10 μg/kg, 1 week): Normal
- Toxemia and Vascular Congestion (horses [1]; LPS 10 μg/kg, 1 week): Normal
- Toxemia, Vascular Congestion, Cyanosis (horses [1]; LPS 10 μg/kg, 1 week): Normal
- Dyspnea and Tachypnea (horses [1]; LPS 10 μg/kg, time 0.00 hours): Normal
- Lung Auscultation (horses [1]; LPS 10 μg/kg, time 0.00 hours): Normal
- Toxemia and Vascular Congestion (horses [1]; LPS 10 μg/kg, time 0.00 hours): Normal
- Toxemia, Vascular Congestion, Cyanosis (horses [1]; LPS 10 μg/kg, time 0.00 hours): Normal
- Dyspnea and Tachypnea (horses [1]; LPS 10 μg/kg, time 0.15 hours): Normal
- Toxemia, Vascular Congestion, Cyanosis (horses [1]; LPS 10 μg/kg, time 0.15 hours): Normal
- Dyspnea and Tachypnea (horses [1]; LPS 10 μg/kg, time 0.3 hours): Normal
- Lung Auscultation (horses [1]; LPS 10 μg/kg, time 0.3 hours): Normal
- Toxemia and Vascular Congestion (horses [1]; LPS 10 μg/kg, time 0.3 hours): Weak Congestion
- Toxemia, Vascular Congestion, Cyanosis (horses [1]; LPS 10 μg/kg, time 0.3 hours): Weak Congestion
- Dyspnea and Tachypnea (horses [1]; LPS 10 μg/kg, time 3 hours): Normal
- Lung Auscultation (horses [1]; LPS 10 μg/kg, time 3 hours): Normal
- Toxemia and Vascular Congestion (horses [1]; LPS 10 μg/kg, time 3 hours): Weak Congestion
- Toxemia, Vascular Congestion, Cyanosis (horses [1]; LPS 10 μg/kg, time 3 hours): Weak Congestion
- Dyspnea and Tachypnea (horses [1]; LPS 10 μg/kg, time 24 hours): Normal
- Lung Auscultation (horses [1]; LPS 10 μg/kg, time 24 hours): Normal
- Toxemia and Vascular Congestion (horses [1]; LPS 10 μg/kg, time 24 hours): Normal
- Toxemia, Vascular Congestion, Cyanosis (horses [1]; LPS 10 μg/kg, time 24 hours): Normal
- abdominal pain, diarrhea, collapse or prostration (horses [1]; LPS 10 μg/kg, C10 (1 mg/kg) iv pretreatment, 1 week): normal
- abdominal pain, diarrhea, collapse or prostration (horses [1]; LPS 10 μg/kg, C10 (1 mg/kg) iv pretreatment, time 0 hours): normal
- abdominal pain, diarrhea, collapse or prostration (horses [1]; [3]): Normal
- number of stools (horses [1]; [3]): 1 stool
- abdominal pain, diarrhea, collapse or prostration (horses [1]; LPS 10 μg/kg, C10 (1 mg/kg) iv pretreatment, time 24 hours): normal
- effectiveness of treatment (horses [2]; 10 animals so treated): 100%
- time to disappearance of signs of collapse or depression after the C-10 bolus (horses [2]; C10 2 mg/kg intravenous bolus at 12 hours): ≤ 15 min
- survival rate (horses [2]; endotoxemia and shock due to septic peritonitis, intraperitoneal inoculation of intestinal flora): 100%
- LPS- or IL-1β-increased IFN-β luciferase activity (IFN-β promoter; FRTL-5, LPS 100 ng/ml or IL-1β 10 ng/ml, 0.5 mM C-10, 5 mM MMI, P<0.05 or better): inhibited the increase
- poly (I:C)-increased IFN-β promoter activity (luciferase) (IFN-β promoter; FRTL-5, Poly (I:C) 100 μg/ml, 6 hours, C10 0.5 mM, P<0.01): inhibited
- serum cytokine levels (IL-1β, IL-6, TNF-α, IFN-γ, IL-12) by ELISA (serum cytokines): reduced these cytokine levels to levels in normal control mice
